Structures are written as SMILES. Values after ≈ are worked out from the molar mass of the structure shown.

The record followed here is ChEMBL document CHEMBL1142033, “Synthesis of isonicotinic acid N'-arylidene-N-[2-oxo-2-(4-aryl-piperazin-1-yl)-ethyl]-hydrazides as antituberculosis agents” (2005).

Experiment [1] deals with Mycobacterium tuberculosis. Briefly: Minimum inhibitory concentration against sensitive Mycobacterium tuberculosis clinical isolates; N=9. Format: functional.
Experiment [2] concerns Mycobacterium tuberculosis. Nature of the experiment: Minimum inhibitory concentration against Mycobacterium tuberculosis H37Rv ATCC 27294. In kind it is functional.
For experiment [3], the system named is Mycobacterium tuberculosis. Briefly: Minimum inhibitory concentration against sensitive Mycobacterium tuberculosis clinical isolates; N=9; range=8-16. Format: functional.
Experiment [4] deals with Mycobacterium tuberculosis. Nature of the experiment: Minimum inhibitory concentration against sensitive Mycobacterium tuberculosis clinical isolates; N=9; range=2-4. In kind it is functional.
Experiment [5] has as its system Mycobacterium tuberculosis. Nature of the experiment: Minimum inhibitory concentration against sensitive Mycobacterium tuberculosis clinical isolates; N=9; range=4-8. In kind it is functional.
The subject of experiment [6] is Mycobacterium tuberculosis. Briefly: Minimum inhibitory concentration against sensitive Mycobacterium tuberculosis clinical isolates; N=9; range=1-4. In kind it is functional.
Experiment [7] has as its system Mycobacterium tuberculosis. Briefly: Minimum inhibitory concentration against sensitive Mycobacterium tuberculosis clinical isolates; N=9; Range = 0.12-0.25. In kind it is functional.
Experiment [8] concerns Mycobacterium tuberculosis. Briefly: microbe, parasite or virus in culture.
Description: Minimum inhibitory concentration against sensitive Mycobacterium tuberculosis clinical isolates; N=9; Range=0.03-0.5

For `O=C(CN(/N=C/c1ccccc1Cl)C(=O)c1ccncc1)N1CCN(c2ccc(F)cc2)CC1`, the MIC in experiment [1] and in experiment [2] was more than 16 µg/mL in each case.

For `O=C(CN(/N=C/c1cccc(Cl)c1)C(=O)c1ccncc1)N1CCN(c2ccc([N+](=O)[O-])cc2)CC1`, the MIC in experiment [1] and in experiment [2] was more than 16 µg/mL throughout.

For the molecule `O=C(CN(/N=C/c1ccc(Cl)cc1Cl)C(=O)c1ccncc1)N1CCN(c2ccc(Cl)cc2)CC1`, the MIC in experiment [1] and in experiment [2] was 8 µg/mL (≈ 15.1 µM) in each case.

For `O=C(CN(/N=C/c1ccc(Cl)cc1Cl)C(=O)c1ccncc1)N1CCN(c2ccc(F)cc2)CC1`, the MIC in experiment [3] was 16 µg/mL (≈ 31.1 µM); in experiment [2], more than 16 µg/mL.

In the case of `O=C(CN(/N=C/c1cccc(Cl)c1)C(=O)c1ccncc1)N1CCN(c2ccc(Cl)cc2)CC1`, the MIC in experiment [1] and in experiment [2] was more than 16 µg/mL each time.

With `COc1ccccc1N1CCN(C(=O)CN(/N=C/c2ccc(Cl)cc2)C(=O)c2ccncc2)CC1`, the MIC in experiment [1] and in experiment [2] was more than 16 µg/mL each time.

On to `COc1ccccc1N1CCN(C(=O)CN(/N=C/c2ccccc2Cl)C(=O)c2ccncc2)CC1`, for which the MIC in experiment [1] and in experiment [2] was more than 16 µg/mL throughout.

For the molecule `O=C(CN(/N=C/c1ccc(Cl)cc1)C(=O)c1ccncc1)N1CCN(c2ccc(Cl)cc2)CC1`, the MIC in experiment [1] and in experiment [2] was more than 16 µg/mL each time.

Turning to `O=C(CN(/N=C/c1ccc(Cl)cc1Cl)C(=O)c1ccncc1)N1CCN(c2cccc(C(F)(F)F)c2)CC1`, the MIC in experiment [1] and in experiment [2] was more than 16 µg/mL throughout.

As to `O=C(CN(/N=C/c1ccccc1Cl)C(=O)c1ccncc1)N1CCN(c2ccccc2)CC1`, the results for the MIC in experiment [3] and in experiment [2] were 16 µg/mL (≈ 34.6 µM) and more than 16 µg/mL, respectively.

On to `O=C(CN(/N=C/c1ccccc1Cl)C(=O)c1ccncc1)N1CCN(c2ccc([N+](=O)[O-])cc2)CC1`, for which the MIC in experiment [1] and in experiment [2] was more than 16 µg/mL throughout.

Regarding `Cc1cccc(N2CCN(C(=O)CN(/N=C/c3ccc(Cl)cc3Cl)C(=O)c3ccncc3)CC2)c1`, the MIC in experiment [1] and in experiment [2] was more than 16 µg/mL throughout.

In the case of `O=C(CN(/N=C/c1ccccc1Cl)C(=O)c1ccncc1)N1CCN(c2cccc(Cl)c2)CC1`, the MIC in experiment [1] and in experiment [2] was more than 16 µg/mL each time.

Consider `Cc1cccc(N2CCN(C(=O)CN(/N=C/c3ccccc3Cl)C(=O)c3ccncc3)CC2)c1`, for which the MIC in experiment [1] and in experiment [2] was more than 16 µg/mL throughout.

On to `O=C(CN(/N=C/c1ccc(Cl)cc1)C(=O)c1ccncc1)N1CCN(c2ccc(F)cc2)CC1`, for which the MIC in experiment [1] and in experiment [2] was more than 16 µg/mL throughout.

With `COc1ccccc1N1CCN(C(=O)CN(/N=C/c2cccc(Cl)c2)C(=O)c2ccncc2)CC1`, the MIC in experiment [1] and in experiment [2] was more than 16 µg/mL in each case.

As to `O=C(CN(/N=C/c1ccccc1Cl)C(=O)c1ccncc1)N1CCN(c2cccc(C(F)(F)F)c2)CC1`, the MIC in experiment [1] and in experiment [2] was more than 16 µg/mL in each case.

Consider `O=C(CN(/N=C/c1ccc(Cl)cc1Cl)C(=O)c1ccncc1)N1CCN(c2cccc(Cl)c2)CC1`, for which the MIC in experiment [1] and in experiment [2] was more than 16 µg/mL each time.

`O=C(CN(/N=C/c1cccc(Cl)c1)C(=O)c1ccncc1)N1CCN(c2ccc(F)cc2)CC1`: the MIC in experiment [1] and in experiment [2] was more than 16 µg/mL each time.

Turning to `O=C(CN(/N=C/c1cccc(Cl)c1)C(=O)c1ccncc1)N1CCN(c2cccc(Cl)c2)CC1`, the MIC in experiment [1] and in experiment [2] was more than 16 µg/mL in each case.

On to `O=C(CN(/N=C/c1ccc(Cl)cc1)C(=O)c1ccncc1)N1CCN(c2ccc([N+](=O)[O-])cc2)CC1`, for which the MIC in experiment [1] and in experiment [2] was more than 16 µg/mL each time.

For `COc1ccccc1N1CCN(C(=O)CN(/N=C/c2ccc(Cl)cc2Cl)C(=O)c2ccncc2)CC1`, the MIC in experiment [1] and in experiment [2] was more than 16 µg/mL each time.

For `O=C(CN(/N=C/c1ccccc1Cl)C(=O)c1ccncc1)N1CCN(c2ccc(Cl)cc2)CC1`, the MIC in experiment [1] and in experiment [2] was more than 16 µg/mL throughout.

In experiment [1], `O=C(CN(/N=C/c1ccc(Cl)cc1Cl)C(=O)c1ccncc1)N1CCN(Cc2ccc3c(c2)OCO3)CC1` showed an MIC of 0.5 µg/mL (≈ 0.902 µM). For the same molecule, the “Range of MIC” value in experiment [2] stood at 1 µg/mL.

As for `O=C(CN(/N=C/c1ccc(Cl)cc1Cl)C(=O)c1ccncc1)N1CCN(c2ccc([N+](=O)[O-])cc2)CC1`, the MIC in experiment [1] and in experiment [2] was more than 16 µg/mL throughout.

Consider `O=C(CN(/N=C/c1cccc(Cl)c1)C(=O)c1ccncc1)N1CCN(Cc2ccc3c(c2)OCO3)CC1`, for which the MIC in experiment [4] and in experiment [2] was 4 µg/mL (≈ 7.69 µM) each time.

With `O=C(CN(/N=C/c1ccc(Cl)cc1Cl)C(=O)c1ccncc1)N1CCN(c2ccccc2)CC1`, the MIC in experiment [1] and in experiment [2] was more than 16 µg/mL throughout.

As to `O=C(CN(/N=C/c1ccccc1Cl)C(=O)c1ccncc1)N1CCN(Cc2ccc3c(c2)OCO3)CC1`, the MIC in experiment [5] came to 8 µg/mL (≈ 15.4 µM); in experiment [2], 4 µg/mL (≈ 7.69 µM).

Take `Cc1cccc(N2CCN(C(=O)CN(/N=C/c3cccc(Cl)c3)C(=O)c3ccncc3)CC2)c1`: the MIC in experiment [1] and in experiment [2] was more than 16 µg/mL throughout.

With `O=C(CN(/N=C/c1ccc(Cl)cc1)C(=O)c1ccncc1)N1CCN(Cc2ccc3c(c2)OCO3)CC1`, the MIC in experiment [6] stood at 4 µg/mL (≈ 7.69 µM); in experiment [2], 2 µg/mL (≈ 3.85 µM).

Turning to `O=C(CN(/N=C/c1ccccc1Cl)C(=O)c1ccncc1)N1CCN(c2cccc(Cl)c2Cl)CC1`, the MIC in experiment [1] and in experiment [2] was more than 16 µg/mL each time.

Turning to `O=C(CN(/N=C/c1cccc(Cl)c1)C(=O)c1ccncc1)N1CCN(c2ccccc2)CC1`, the MIC in experiment [1] and in experiment [2] was more than 16 µg/mL throughout.

On to `NNC(=O)c1ccncc1` [ISONIAZID], for which the MIC in experiment [7] and in experiment [2] was 0.25 µg/mL (≈ 1.82 µM) throughout.

For the molecule `CO[C@H]1/C=C/O[C@@]2(C)Oc3c(C)c(O)c4c(O)c(c(/C=N/N5CCN(C)CC5)c(O)c4c3C2=O)NC(=O)/C(C)=C\C=C\[C@H](C)[C@H](O)[C@@H](C)[C@@H](O)[C@@H](C)[C@H](OC(C)=O)[C@@H]1C` [RIFAMPIN], the MIC was 0.5 µg/mL (≈ 0.608 µM) in experiment [8] and 0.125 µg/mL (≈ 0.152 µM) in experiment [2].
